Test results as given in US5073562A, “Alkoxy-substituted dihydrobenzopyran-2-carboxylic acids and derivatives thereof” (G. D. Searle & Co., priority 1990, dated 1991).

What was measured:
[1] = system: Human neutrophils (LTB4 chemotaxis); experiment: Modified Boyden Chamber Chemotaxis, LTB4; format: cell-based; set-up: key to Chemotaxis LTB4, inactive at the dose tested: IA: Inactive at the dose tested; settings: for Relative Potency, Chemotaxis LTB4: potency relative to the compound of Example 1(b), defined as 1.0, 3×10^-8 M LTB4, 40-90 minute, 37° C.
Protocol: (§1) Human neutrophils were isolated from citrated peripheral blood using standard techniques of dextran sedimentation, followed by centrifugation on Histopaque® sterile solution (Sigma) or Ficoll-paque® (Pharmacia) and hypotonic lysis of erythrocytes. A final cell suspension of 3.4×10^6 neutrophils/ml of HEPES-buffered Hanks' balanced salt solution (HBSS, pH 7.3) was added to the upper well (0.8 ml) of a modified Boyden chamber (blind well). […] The number of neutrophils migrating into the lower chamber in the absence of chemoattractant was subtracted from the number of cells migrating in the presence of a chemoattractant. Inhibition of chemotaxis by test compounds was expressed as percent inhibition relative to uninhibited control. […] Pat. No. 4,889,871.

LTB4 Receptor = target: T1, LTB4 Receptor (Homo sapiens, UniProt Q15722); experiment: LTB4 Receptor Binding Assay ((3H) LTB4, neutrophils); settings: potency relative to the compound of Example 1(b), defined as 1.0, 0.6×10^-9 M (3H) LTB4, 0° C., 45 minutes
T1 construct: Neutrophils were purified from venous blood of normal human donors; endogenous in cells; host or cells: human peripheral blood neutrophils (purity >95%)
Protocol: The incubation was carried out at 0° C. for 45 minutes and terminated by adding 5 ml of ice-cold HBSS followed by rapid filtration of the incubation mixture under vacuum through GF/C glass fiber filters. The filters were further washed with 10 ml HBSS and radioactivity was determined. […] All data refer to specific binding. […] Pat. No. 4,889,871.

[2] = system: Human neutrophils (fMLP chemotaxis); experiment: Modified Boyden Chamber Chemotaxis, fMLP; format: cell-based; settings: for Relative Potency, Chemotaxis fMLP: potency relative to the compound of Example 1(b), defined as 1.0
Protocol: as §1

T1 sequence (Q15722 whole entry): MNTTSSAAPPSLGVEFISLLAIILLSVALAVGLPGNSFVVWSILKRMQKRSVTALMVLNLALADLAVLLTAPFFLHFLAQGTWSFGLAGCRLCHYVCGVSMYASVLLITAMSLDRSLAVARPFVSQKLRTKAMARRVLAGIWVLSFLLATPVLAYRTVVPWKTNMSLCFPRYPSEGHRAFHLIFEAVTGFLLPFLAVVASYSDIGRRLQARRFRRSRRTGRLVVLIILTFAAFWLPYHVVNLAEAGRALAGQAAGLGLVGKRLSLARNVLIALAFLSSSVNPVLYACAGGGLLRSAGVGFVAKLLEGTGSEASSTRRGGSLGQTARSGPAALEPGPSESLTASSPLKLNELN

Relative Potency, LTB4 Receptor Binding (LTB4 Receptor)	IC50 ([1]; Homo sapiens, Neutrophil, value in parentheses, 3×10^-8 M LTB4)	IC50 ([2]; Homo sapiens, Neutrophil, value in parentheses)	SMILES	Relative Potency, Chemotaxis LTB4 [1]	Chemotaxis LTB4, inactive at the dose tested ([1]; dose not given, 3×10^-8 M LTB4)	Relative Potency, Chemotaxis fMLP [2]
0.19			CCCc1c(OCCCOc2ccc(-c3csc(SC)n3)c(OC)c2CCC)ccc2c1OC(C(=O)O)CC2 (centres unmarked) [Example 28]	0.05		
0.02			CCCc1c(OCCCOc2ccc(-c3csc(SCc4ccccc4)n3)c(OC)c2CCC)ccc2c1OC(C(=O)O)CC2 (centres unmarked) [Example 29]		IA	
0.31			CCCc1c(OCCCOc2ccc(-c3csc(OC)n3)c(OC)c2CCC)ccc2c1OC(C(=O)O)CC2 (centres unmarked) [Example 24, 3,4-Dihydro-7-[3-[3-methoxy-4-(2-methoxy-4-thiazolyl)-2-propylphenoxy]propoxy]-8-propyl-2H-1-benzopyran-2-carboxylic acid]	< 0.23		
0.47			CCCc1c(OCCCOc2ccc(-c3coc(C)n3)c(OC)c2CCC)ccc2c1OC(C(=O)O)CC2 (centres unmarked) [Example 14, 3,4-dihydro-7-[3-[3-methoxy-4-(2-methyl-4-oxazolyl)-2-propylphenoxy]propoxy]-8-propyl-2H-1-benzopyran-2-carboxylic acid]	< 0.1		
0.51			CCCc1c(OCCCOc2ccc(-c3csc(=S)[nH]3)c(OC)c2CCC)ccc2c1OC(C(=O)O)CC2 (centres unmarked) [Example 26, 3,4-Dihydro-7-[3-[4-(2,3-dihydro-2-thioxo-4-thiazolyl)-3-methoxy-2-propylphenoxy]propoxy]-8-propyl-2H-1-benzopyran-2-carboxylic acid]			
2.65			CCCc1c(OCCCOc2ccc(-c3c[nH]c(SCc4ccccc4)n3)c(OC)c2CCC)ccc2c1OC(C(=O)O)CC2 (centres unmarked) [Example 8, 3,4-Dihydro-7-[3-[3-methoxy-4-[2-[(phenylmethyl)thio]-1H-imidazol-4-yl]-2-propylphenoxy]propoxy]-8-propyl-2H-1-benzopyran-2-carboxylic acid]	1.86		2.0
4.0			CCCc1c(OCCCOc2ccc(-c3cocn3)c(OC)c2CCC)ccc2c1OC(C(=O)O)CC2 (centres unmarked) [Example 5, 3,4-Dihydro-7-[3-[3-methoxy-4-(4-oxazolyl)-2-propylphenoxy]propoxy]-8-propyl-2H-1-benzopyran-2-carboxylic acid]	2.2		0.73
1.0			CCCc1c(OCCCOc2ccc(-c3c[nH]cn3)c(OC)c2CCC)ccc2c1OC(C(=O)O)CC2 (centres unmarked) [Example 9]	0.66		0.45
1.56			CCCc1c(OCCCOc2ccc(-c3csc(N)n3)c(OC)c2CCC)ccc2c1OC(C(=O)O)CC2 (centres unmarked) [Example 10, 7-[3-[4-(2-amino-4-thiazolyl)3-methoxy-2propylphenoxy]propoxy]3,4-dihydro-8-propyl-2H-1-benzopyran-2-carboxylic acid]	0.63		1.4
11.6			C=CCc1c(OCCCOc2ccc3c(c2CCC)OC(C(=O)O)CC3)ccc(-c2cscn2)c1OC (centres unmarked) [Example 17, 3,4-dihydro-7-[3-[3-methoxy-2-(2-propenyl)-4-(4-thiazolyl)-phenoxy]propoxy]-8-propyl-2H-1-benzopyran-2-carboxylic acid]	8.3		1.9
	1.8 µM	5.4 µM	CCCc1c(OCCCOc2ccc(C(C)=O)c(OC)c2CCC)ccc2c1OC(C(=O)O)CC2 (centres unmarked) [Example 1(b), 7-[3-(4-acetyl-3-methoxy-2-propylphenoxy)propoxy]-3,4-dihydro-8-propyl-2H-1-benzopyran-2-carboxylic acid, reference compound]			
4.5			CCCc1c(OCCCOc2ccc(-c3cscn3)c(OC)c2CCC)ccc2c1OC(C(=O)O)CC2 (centres unmarked) [Example 12, 3,4-dihydro-7-[3-[3-methoxy-2-propyl-4-(4-thiazolyl)phenoxy]-propoxy]-8-propyl-2H-1-benzopyran-2-carboxylic acid]	3.0		1.1
